Measurements from patent US11000033B2, “Ketone or oxime compound, and herbicide” (NISSAN CHEMICAL CORPORATION, priority 2014, dated 2021).

Key:
Type in all cases: in vivo
[1] = system: Echinochloa oryzacola Vasing.; assay: Test Example 1: herbicidal activity, application before weed generation in submerged conditions (symbol A); details: application herbicide amount 320 g/ha
In short: (§1)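 Pre-emergence, paddy conditions: emulsifiable formulation diluted in water, dosed onto floodwater (4 cm depth) on sowing day. Alluvial soil; weeds sown mixed; rice transplanted at 2.5-leaf stage. Greenhouse 25–30 °C, 3 wk. Score 0–5 (5 = ≥90% kill, 0 = ≤5%).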

Scirpus juncoides = assay: Test Example 1: herbicidal activity, application before weed generation in submerged conditions (symbol B); details: application herbicide amount 320 g/ha
In short: as §1

Monochoria vaginalis = assay: Test Example 2: herbicidal activity, application during weed generation in submerged conditions (symbol C); details: Table 23; application herbicide amount 320 g/ha; grade 0-5 by criteria of Test Example 1
In short: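 Paddy pot test, submerged (4 cm water), alluvial soil, mixed sowing; greenhouse 25–30° C. Emulsion formulation diluted to predetermined rate, applied onto floodwater at 1–2 leaf stage. Visual herbicidal rating at 3 wk post-treatment.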

Leptochloa chinensis = assay: Test Example 3: herbicidal effect by foliage application, Wagner pot (symbol D); details: application herbicide amount 320 g/ha
In short: (§2)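 Foliar spray of water-diluted emulsion formulation at a predetermined herbicide amount onto 14-day-old plants in flooded alluvial soil (water depth 0.1–0.5 cm), greenhouse 25–30 °C; rice sown alongside. Scored 3 wk post-application on set criteria.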

Cyperus difformis = assay: Test Example 3: herbicidal effect by foliage application, Wagner pot (symbol E); details: application herbicide amount 320 g/ha
In short: as §2

Digitaria ciliaris [2] = assay: Test Example 4: herbicidal effect by soil treatment (symbol F); details: application herbicide amount 320 g/ha
In short: (§3)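 Seeds were sown in sterilized diluvial soil, covered with about 1.5 cm of soil, and the soil surface was sprayed with a water-diluted emulsion of the compound at a predetermined rate. Plants grew in a greenhouse at 25° C. to 30° C.; effects were scored visually 3 weeks after application.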

Setaria viridis [3] = assay: Test Example 4: herbicidal effect by soil treatment (symbol G); details: application herbicide amount 320 g/ha
In short: as §3

[4] = system: Echinochloa crus-galli var. crus-galli; assay: Test Example 4: herbicidal effect by soil treatment (symbol H); details: application herbicide amount 320 g/ha
In short: as §3

Veronica persica = assay: Test Example 4: herbicidal effect by soil treatment (symbol R); details: application herbicide amount 320 g/ha
In short: as §3

beet = assay: Test Example 4: effect on crop by soil treatment (symbol f); details: application herbicide amount 320 g/ha
In short: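 Plants are raised in a greenhouse (25° C. to 30° C.) from spot-sown seed, which sits under about 1.5 cm of sterilized diluvial soil in a box shared with weed species.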

Digitaria ciliaris [5] = assay: Test Example 5: herbicidal effect by foliage application, plastic box (symbol F); details: 320 g/ha, 3 weeks after application
In short: (§4)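 Greenhouse foliar test: seedlings at 14 days, grown 25° C. to 30° C. in sterilized diluvial soil; compound applied as an aqueous dilution of an emulsion; response read 3 weeks after spraying.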

Setaria viridis [6] = assay: Test Example 5: herbicidal effect by foliage application, plastic box (symbol G); details: 320 g/ha, 3 weeks after application
In short: as §4

Avena fatua = assay: Test Example 5: herbicidal effect by foliage application, plastic box (symbol I); details: 320 g/ha, 3 weeks after application
In short: as §4

Stellaria media = assay: Test Example 5: herbicidal effect by foliage application, plastic box (symbol P); details: 320 g/ha, 3 weeks after application
In short: as §4

Row | Structure (SMILES) | Herbicidal effect grade, A: Echinochloa oryzacola Vasing. [1] | Herbicidal effect grade, B: Scirpus juncoides (Scirpus juncoides) | Herbicidal effect grade, C: Monochoria vaginalis (Monochoria vaginalis) | herbicidal effect on D (Leptochloa chinensis), grade 0-5 (Leptochloa chinensis) | herbicidal effect on E, grade 0-5 (Cyperus difformis) | F: Digitaria ciliaris, herbicidal effect grade (Digitaria ciliaris [2]) | G: Setaria viridis, herbicidal effect grade (Setaria viridis [3]) | H: Echinochloa crus-galli var. crus-galli, herbicidal effect grade [4] | R: Veronica persica, herbicidal effect grade (Veronica persica) | f: beet, effect on crop grade (beet) | F: Digitaria ciliaris, herbicidal effect (criteria of Test Example 1) (Digitaria ciliaris [5]) | G: Setaria viridis, herbicidal effect (criteria of Test Example 1) (Setaria viridis [6]) | I: Avena fatua, herbicidal effect (criteria of Test Example 1) (Avena fatua) | P: Stellaria media, herbicidal effect (criteria of Test Example 1) (Stellaria media) | Herbicidal effect grade, F: Digitaria ciliaris (Digitaria ciliaris [2]) | Herbicidal effect grade, G: Setaria viridis (Setaria viridis [3]) | Herbicidal effect grade, H: Echinochloa crus-galli var. crus-galli [4] | Herbicidal effect grade, R: Veronica persica (Veronica persica) | Effect on crop grade, f: beet (beet)
1 | CON=C(C)CC1CC(O)=C(c2c(C)cc(-c3ccc(Cl)cc3F)cc2C)C1=O (stereo not shown) [6-084] | 5 (Herbicidal ratio of 90% or more (almost completely withered)) | 3 (Herbicidal ratio of 40% or higher and lower than 70%) | 0 (Herbicidal ratio of 5% or lower (almost no effect)) | 5 (Herbicidal ratio of 90% or more (almost completely withered)) | 5 (Herbicidal ratio of 90% or more (almost completely withered)) | 5 (Herbicidal ratio of 90% or more (almost completely withered)) | 5 (Herbicidal ratio of 90% or more (almost completely withered)) | 5 (Herbicidal ratio of 90% or more (almost completely withered)) | 4 (Herbicidal ratio of 70% or higher and lower than 90%) | 0 (Herbicidal ratio of 5% or lower (almost no effect)) | 5 (Herbicidal ratio of 90% or more (almost completely withered)) | 5 (Herbicidal ratio of 90% or more (almost completely withered)) | 5 (Herbicidal ratio of 90% or more (almost completely withered)) | 3 (Herbicidal ratio of 40% or higher and lower than 70%) |  |  |  |  | 
2 | CON=C(C)CC1CC(O)=C(c2c(C)cc(-c3ccc(F)c(Cl)c3)cc2C)C1=O (stereo not shown) [6-085] | 5 (Herbicidal ratio of 90% or more (almost completely withered)) | 3 (Herbicidal ratio of 40% or higher and lower than 70%) | 1 (Herbicidal ratio of 5% or higher and lower than 20%) | 5 (Herbicidal ratio of 90% or more (almost completely withered)) | 5 (Herbicidal ratio of 90% or more (almost completely withered)) |  |  |  |  |  | 5 (Herbicidal ratio of 90% or more (almost completely withered)) | 5 (Herbicidal ratio of 90% or more (almost completely withered)) | 5 (Herbicidal ratio of 90% or more (almost completely withered)) | 3 (Herbicidal ratio of 40% or higher and lower than 70%) | 5 (Herbicidal ratio of 90% or more (almost completely withered)) | 5 (Herbicidal ratio of 90% or more (almost completely withered)) | 5 (Herbicidal ratio of 90% or more (almost completely withered)) | 4 (Herbicidal ratio of 70% or higher and lower than 90%) | 3 (Herbicidal ratio of 40% or higher and lower than 70%)
3 | CON=C(C)CC1CC(OC(=O)C(C)CSC)=C(c2c(C)cc(-c3ccc(Cl)cc3)cc2C)C1=O (stereo not shown) [6-086] | 5 (Herbicidal ratio of 90% or more (almost completely withered)) | 2 (Herbicidal ratio of 20% or higher and lower than 40%) | 3 (Herbicidal ratio of 40% or higher and lower than 70%) | 5 (Herbicidal ratio of 90% or more (almost completely withered)) | 5 (Herbicidal ratio of 90% or more (almost completely withered)) |  |  |  |  |  | 5 (Herbicidal ratio of 90% or more (almost completely withered)) | 5 (Herbicidal ratio of 90% or more (almost completely withered)) | 5 (Herbicidal ratio of 90% or more (almost completely withered)) | 4 (Herbicidal ratio of 70% or higher and lower than 90%) | 5 (Herbicidal ratio of 90% or more (almost completely withered)) | 5 (Herbicidal ratio of 90% or more (almost completely withered)) | 5 (Herbicidal ratio of 90% or more (almost completely withered)) | 4 (Herbicidal ratio of 70% or higher and lower than 90%) | 1 (Herbicidal ratio of 5% or higher and lower than 20%)
4 | CON=C(C)CC1CC(O)=C(c2c(C)cc(-c3cc(Cl)cc(Cl)c3)cc2C)C1=O (stereo not shown) [6-087] | 5 (Herbicidal ratio of 90% or more (almost completely withered)) | 0 (Herbicidal ratio of 5% or lower (almost no effect)) | 0 (Herbicidal ratio of 5% or lower (almost no effect)) | 5 (Herbicidal ratio of 90% or more (almost completely withered)) | 0 (Herbicidal ratio of 5% or lower (almost no effect)) |  |  |  |  |  | 5 (Herbicidal ratio of 90% or more (almost completely withered)) | 5 (Herbicidal ratio of 90% or more (almost completely withered)) | 0 (Herbicidal ratio of 5% or lower (almost no effect)) | 1 (Herbicidal ratio of 5% or higher and lower than 20%) | 5 (Herbicidal ratio of 90% or more (almost completely withered)) | 5 (Herbicidal ratio of 90% or more (almost completely withered)) | 5 (Herbicidal ratio of 90% or more (almost completely withered)) | 2 (Herbicidal ratio of 20% or higher and lower than 40%) | 0 (Herbicidal ratio of 5% or lower (almost no effect))
5 | CON=C(C)CC1CC(O)=C(c2c(C)cc(-c3ccc(Cl)cc3Cl)cc2C)C1=O (stereo not shown) [6-088] | 4 (Herbicidal ratio of 70% or higher and lower than 90%) | 1 (Herbicidal ratio of 5% or higher and lower than 20%) | 0 (Herbicidal ratio of 5% or lower (almost no effect)) | 5 (Herbicidal ratio of 90% or more (almost completely withered)) | 5 (Herbicidal ratio of 90% or more (almost completely withered)) |  |  |  |  |  | 5 (Herbicidal ratio of 90% or more (almost completely withered)) | 5 (Herbicidal ratio of 90% or more (almost completely withered)) | 5 (Herbicidal ratio of 90% or more (almost completely withered)) | 4 (Herbicidal ratio of 70% or higher and lower than 90%) | 5 (Herbicidal ratio of 90% or more (almost completely withered)) | 5 (Herbicidal ratio of 90% or more (almost completely withered)) | 5 (Herbicidal ratio of 90% or more (almost completely withered)) | 4 (Herbicidal ratio of 70% or higher and lower than 90%) | 0 (Herbicidal ratio of 5% or lower (almost no effect))
